Experimental data: US20240382556A1, “METHODS AND COMPOSITIONS FOR THE TREATMENT OF ALCOHOL DEPENDENCE” (Duke University, priority 2023, published 2024)
Residues, ends and D or L forms follow the SMILES beside them.

Experiments:
Adult male C57/B16J mice = assay: Drinking in the Dark (DID) mouse model of binge drinking behavior; type: in vivo
Protocol: To measure binge drinking behavior, experiments were conducted that used the Drinking in the Dark (DID) model as previously published (see, Thiele T E, Crabbe J C, Boehm S L, 2nd (2014): “Drinking in the Dark” (DID): a simple mouse model of binge-like alcohol intake. Curr Protoc Neurosci. 68: 9 49 41-49 49 12). Adult male C57/B16J mice on reverse light-dark cycle had water replaced with alcohol three hours into the dark cycle. On days 1-3 of each week (Mon-Wed), mice received 20% alcohol for 2 hrs and on day 4 (Thur) received for 4 hours.
Mice were treated with Rapastinel at dose of 30 mg/kg or saline via intraperitoneal injection (i.p.) 30 minutes prior to alcohol exposure on days 1-4 of cycle either during first cycle of DID or after first undergoing DID for 5 weeks prior to treatment on week 6 (see, FIG. 1).

animal models = conditions: unlike ketamine, Moskal et al. 2017; cited from earlier work
[1] = system: preclinical rodent models; conditions: previously shown; cited from earlier work

C[C@@H](O)[C@H](N)C(=O)N1CCC[C@H]1C(=O)N1CCC[C@H]1C(=O)N[C@H](C(N)=O)[C@@H](C)O [Rapastinel, L-threonyl-L-prolyl-L-prolyl-L-threoninamide] (H-TPPT-NH2)
alcohol consumption (daily and total) compared to saline control (Adult male C57/B16J mice; alcohol naïve mice, 1 cycle of DID, daily i.p. injection of 30 mg/kg prior to presentation of alcohol): no effect | Total average weekly alcohol consumption, week 6 with treatment in comparison to weeks 1-5 (Adult male C57/B16J mice; mice after 5 weeks of DID, 30 mg/kg i.p. 30 minutes prior to alcohol on days 1-4 of week 6, with and without removal of outliers (>90%)): reduced alcohol consumption | negative side effects during treatment (animal models): has not been shown to produce any negative side effects | cravings for opiates [1]: effective in reducing cravings for opiates
